{"source": "patent US6534480B2", "about": "“Compositions for increasing energy in vivo” (Bioenergy Inc., priority 1999, dated 2003)", "key": {"[1]": {"settings": "cited from earlier work"}, "[2]": {"settings": "oral, humans; cited from earlier work"}, "de novo synthesis of AMP": {"system": "de novo synthesis of AMP", "settings": "ribose added to the perfusate; cited from earlier work"}, "[3]": {"experiment": "Self administration of ribose, subject with low energy after systemic bacterial infection", "format": "in vivo, human", "excerpt": "An example of a subject having no overt disease who benefitted from self-administered ribose is a person. They had adhered to a strict weekly exercise regimen most of their life until sustaining a systemic bacterial infection, which required admission to the intensive care unit for one month and rehabilitation for an additional month. Their cardiovascular and pulmonary systems were predominantly affected during and following their illness and function had not recovered to its previous levels, or to their satisfaction, after one year.\nFollowing convalescence, they have attempted to resume an exercise regimen, which involves running on a treadmill four days a week and lifting weights for two days a week. The runs were restricted to short intervals. Following the daily exercises, they have continuously experienced fatigue to the point of exhaustion and has required frequent naps. The patient began self-administering oral D-ribose at two doses per day, 4-5 grams per dose. Within seven days, they testified that their “pep” and exercise tolerance increased. For the first time since their illness, they are able to run as long as 30 minutes on the treadmill. They still experience a Degree of fatigue, but has been able to discontinue the naps after exercise. They continue on the daily oral doses of ribose, along with their scheduled exercises and feels a continuing improvement in their energy level after four weeks of ribose administration."}, "[4]": {"experiment": "Treadmill test (Bruce protocol), single patient with stable coronary artery disease", "format": "in vivo, human", "protocol": "The patient was tested for treadmill performance. After two baseline treadmill tests, following the Bruce protocol, they received orally administered D-ribose (40 gm in three divided doses daily) for three days and completed a third treadmill test. […] In each test, this patient concluded the test due to shortness of breath, but experienced no angina.\nIt is generally accepted that the product of heart rate and systemic pressure is a measure of myocardial function and energy level, with lower numbers indicating better myocardial function. As a result of the administration of ribose, average tolerated time on the treadmill increased."}, "ATP": {"system": "ATP", "experiment": "ATP in vastis lateralis muscle biopsies (Ribose Athlete Study)", "format": "in vivo, human", "settings": "for ATP Recovery % of Pre: 48 hours recovery vs initial level", "protocol": "Four healthy, fit subjects in the age range 24 to 26 years of age were tested. The group was selected to be homogeneous regarding fitness level, gender and mean age with no known metabolic, neuronal, endocrine or cardiopulmonary disorders. All were capable of or had experience with cycling. The study protocol included four phases: (1) an initial baseline phase consisting of no exercise session; (2) a loading phase including three days of administration of either D-ribose or placebo (glucose) three times per day; (3) a training phase of three days employing exercise sessions characterized by serial (N=6) bouts of short (10 second) high-intensity cycle sprints at 7% body mass resistance with 50 second rest periods between sprints twice per day (morning and afternoon), and (4) a recovery phase for a period of 48 hours after the final training session. FIG. 1 is a diagram of a single cycle sprint bout. Muscle biopsies (MB) were performed on the […] lateralis muscle using both legs in order to evenly distribute and minimize sampling and possible muscle soreness per leg due to the biopsy itself. The first MB was collected at rest at the beginning of the study to establish a baseline and immediately after the first training-session of day 0 or the first phase. During the loading phase, no MB was taken. Muscle Biposies were taken following the final training session and after 48 hours of recovery. Two subjects were randomly selected for inclusion into the placebo or ribose group. Ribose or glucose was administered orally in a 250 ml iso-osmotic solution containing 10.0 grams of either ribose or placebo three times per day for three days preceding training (loading phase) and for three days during training (training phase). One-half liter isotonic electrolyte solution was given immediately post exercise and again 30 minutes later to avoid dehydration. The concentration of the following analytes was determined in the MB samples: ATP, ADP, AMP, IMP (inosine monophosphate), TAN (total adenine nucleotides), creatine phosphate and creatine."}}}
{"smiles": "O=C[C@H](O)[C@H](O)[C@H](O)CO", "note": "[Ribose, D-ribose]", "values": [{"measurement": "symptoms of MAD-deficient patients", "setting": "[1]; MAD-deficient patients", "value": "relieved"}, {"measurement": "effect in normal volunteers", "setting": "[1]; normal volunteers", "value": "no beneficial effect"}, {"measurement": "treatment of cardiac insufficiency and hypovolemic shock", "setting": "[2]", "value": "effective"}, {"measurement": "de novo synthesis of AMP in sedentary muscle", "setting": "de novo synthesis of AMP", "value": "increases the de novo synthesis of AMP"}, {"measurement": "decline in de novo synthesis in contracting muscle", "setting": "de novo synthesis of AMP", "value": "does not eliminate the decline"}, {"measurement": "adverse effects", "setting": "[3]; four weeks of oral ribose administration", "value": "no adverse effects"}, {"measurement": "time able to run on the treadmill", "setting": "[3]; oral D-ribose two doses per day, 4-5 grams per dose", "value": "≤ 30", "unit": "min"}, {"measurement": "\"pep\" and exercise tolerance", "setting": "[3]; within seven days of oral D-ribose, two doses per day, 4-5 grams per dose", "value": "increased"}, {"measurement": "Rate-pressure product, % change", "setting": "[4]; 0 (rest), Test vs average of two baselines", "value": "−9.55", "unit": "%"}, {"measurement": "Rate-pressure product (beats per minute times systolic blood pressure mm Hg), Test", "setting": "[4]; 0 (rest), oral D-ribose 40 gm in three divided doses daily for three days", "value": "9,177"}, {"measurement": "Rate-pressure product (beats per minute times systolic blood pressure mm Hg), Test", "setting": "[4]; 3 minutes on treadmill, after D-ribose", "value": "15,272"}, {"measurement": "Rate-pressure product, % change", "setting": "[4]; 3 minutes, Test vs average of two baselines", "value": "−1.60", "unit": "%"}, {"measurement": "Rate-pressure product (beats per minute times systolic blood pressure mm Hg), Test", "setting": "[4]; 6 minutes on treadmill, after D-ribose", "value": "20,592"}, {"measurement": "Rate-pressure product, % change", "setting": "[4]; 6 minutes, Test vs average of two baselines", "value": "−15.68", "unit": "%"}, {"measurement": "Rate-pressure product (beats per minute times systolic blood pressure mm Hg), Test", "setting": "[4]; 9 minutes on treadmill, after D-ribose", "value": "25,356"}, {"measurement": "Rate-pressure product, % change", "setting": "[4]; 9 minutes, Test vs average of two baselines", "value": "−9.87", "unit": "%"}, {"measurement": "Tolerated time, % change", "setting": "[4]; Test vs average of two baselines", "value": 5.06, "unit": "%"}, {"measurement": "patient's subjective report", "setting": "[4]; during ribose administration", "value": "feeling more energetic"}, {"measurement": "Tolerated time, Test", "setting": "[4]; treadmill, Bruce protocol, after D-ribose", "value": 540.00, "unit": "s"}, {"measurement": "ATP Recovery % of Pre", "setting": "ATP", "value": 82, "unit": "%"}, {"measurement": "ATP Recovery % of Pre", "setting": "ATP; listed as ribose", "value": 82, "unit": "%"}, {"measurement": "ATP Change Post-Rec", "setting": "ATP; in vivo", "value": 6.90, "unit": "mmol/kg dw"}, {"measurement": "ATP Change Pre-Post", "setting": "ATP; in vivo", "value": "−11.43", "unit": "mmol/kg dw"}, {"measurement": "Mean ATP Values, Recovery", "setting": "ATP; muscle biopsy after 48 hours of recovery", "value": 20.80, "unit": "mmol/kg dw"}, {"measurement": "Mean ATP Values, Post", "setting": "ATP; muscle biopsy following the final training session", "value": 13.90, "unit": "mmol/kg dw"}, {"measurement": "Mean ATP Values, Pre", "setting": "ATP; muscle biopsy, after three days ribose loading, before training", "value": 25.33, "unit": "mmol/kg dw"}]}
